Test results taken from US10183021B2, “sGC stimulators” (Ironwood Pharmaceuticals, Inc., priority 2013, dated 2019).
Where two headings read alike, the source gives them in different places.

Target: soluble guanylate cyclase (sGC) (Homo sapiens (Human), UniProt Q02108+Q02153)
Experiment: sGC-HEK-cGMP assay with SNP incubation, LC/MS detection (Example 2A)
Assay type: cell-based
Settings: HEK293 cells, 10 μM SNP, LC/MS detection; for Emax: 100% = BAY 41-2272 at 10 μM, read-out: HEK assay Emax - unconstrained (%)
Method: Human embryonic kidney cells (HEK293), endogenously expressing soluble guanylate cyclase (sGC), were used to evaluate the activity of test compounds. Compounds stimulating the sGC receptor should cause an increase in the intracellular concentration of cGMP. HEK 293 cells were seeded in Dulbecco's Modification of Eagle's Medium supplemented with fetal bovine serum (10% final) and L-glutamine (2 mM final) in a 200 L volume at a density of 1×10^5 cells/well in a poly-D-lysine coated 96 well flat bottom plate and grown overnight at 37° C. Medium was aspirated and cells were washed with 1× Hank's Buffered Saline Salt Solution (200 μL). Cells were then incubated for 15 minutes at 37° C. with 200 μL of a 0.5 mM 3-isobutyl-1-methylxanthine (IBMX) solution. Test article and sodium nitroprusside solutions (x μM concentration for test article solution and 10 μM concentration for SNP solution; wherein x is one of the following concentrations: 30 μM, 10 μM, 3 μM, 1 μM, 0.3 μM, 0.1 μM, 0.03 μM, 0.01 μM, 0.003 μM, 0.001 μM, 0.0003 μM or 0.0001 μM) were then added to the assay mixture (2 μL each) and the resulting mixture incubated at 37° C. for 10 minutes. After the 10 minute incubation, the assay mixture was aspirated and 0.1M HCl (200 μL) was added to the cells. The plate was incubated at 4° C. for 30 minutes in the 0.1M HCl to stop the reaction and lyse the cells. The plates were then centrifuged at 1,200 g for 5 minutes at room temperature. Supernatants were collected and transferred to a new flat bottom 96 well plate for analysis by HPLC-MS. Vehicle controls were carried out using DMSO (1%) solutions. A known sGC stimulator, BAY 41-2272, was used as the positive control. Samples were diluted with an equal volume of 1 M Ammonium Acetate (pH 7) to neutralize samples for better chromatography. A 2× cGMP standard solution was prepared in 0.1 M HCl and then diluted with an equal volume of 1 M Ammonium Acetate, with the following final concentrations in nM: 1024, 512, 256, 128, 64, 32, 16, 8, 4, 2, 1. cGMP concentrations in the test plates were determined from each sample using the LC/MS conditions shown in Table 2 below and the calculated cGMP standard curve. EC50 values were calculated from concentration-response curves generated with GraphPad Prism Software. Data were normalized to a high control using the following equation: 100*(Sample−Low Control)/(High Control−Low Control), where the low control is the average of 6 samples treated with 1% DMSO, and the high control is the average of 8-12 samples treated with 10 uM BAY 41-2272. Data were fit using a non-linear regression, sigmoidal dose response, 3 parameter fits.

[1] = top of curve not fitted to 100%, read-out: HEK assay EC50 - unconstrained
[2] = top of curve fitted to 100%, read-out: HEK assay EC50 - constrained

soluble guanylate cyclase (sGC), sequence (Q02153 whole entry): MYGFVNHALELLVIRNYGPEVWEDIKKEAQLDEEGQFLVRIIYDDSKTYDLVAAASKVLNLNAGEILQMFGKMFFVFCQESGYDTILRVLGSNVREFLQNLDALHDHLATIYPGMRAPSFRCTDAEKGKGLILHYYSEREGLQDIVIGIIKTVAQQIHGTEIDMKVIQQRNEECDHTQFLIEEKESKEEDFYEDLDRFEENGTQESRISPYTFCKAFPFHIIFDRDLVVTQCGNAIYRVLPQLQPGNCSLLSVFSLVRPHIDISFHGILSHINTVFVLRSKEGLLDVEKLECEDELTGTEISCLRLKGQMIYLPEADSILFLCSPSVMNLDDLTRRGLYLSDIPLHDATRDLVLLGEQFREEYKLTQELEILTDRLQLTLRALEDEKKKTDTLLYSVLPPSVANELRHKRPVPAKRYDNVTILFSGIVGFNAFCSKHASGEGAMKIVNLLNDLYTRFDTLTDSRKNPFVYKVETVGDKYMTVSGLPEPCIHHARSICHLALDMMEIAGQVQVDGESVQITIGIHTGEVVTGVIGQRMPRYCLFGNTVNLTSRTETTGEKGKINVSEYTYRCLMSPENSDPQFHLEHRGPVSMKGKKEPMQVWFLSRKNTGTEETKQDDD
soluble guanylate cyclase (sGC), sequence (Q02108 whole entry): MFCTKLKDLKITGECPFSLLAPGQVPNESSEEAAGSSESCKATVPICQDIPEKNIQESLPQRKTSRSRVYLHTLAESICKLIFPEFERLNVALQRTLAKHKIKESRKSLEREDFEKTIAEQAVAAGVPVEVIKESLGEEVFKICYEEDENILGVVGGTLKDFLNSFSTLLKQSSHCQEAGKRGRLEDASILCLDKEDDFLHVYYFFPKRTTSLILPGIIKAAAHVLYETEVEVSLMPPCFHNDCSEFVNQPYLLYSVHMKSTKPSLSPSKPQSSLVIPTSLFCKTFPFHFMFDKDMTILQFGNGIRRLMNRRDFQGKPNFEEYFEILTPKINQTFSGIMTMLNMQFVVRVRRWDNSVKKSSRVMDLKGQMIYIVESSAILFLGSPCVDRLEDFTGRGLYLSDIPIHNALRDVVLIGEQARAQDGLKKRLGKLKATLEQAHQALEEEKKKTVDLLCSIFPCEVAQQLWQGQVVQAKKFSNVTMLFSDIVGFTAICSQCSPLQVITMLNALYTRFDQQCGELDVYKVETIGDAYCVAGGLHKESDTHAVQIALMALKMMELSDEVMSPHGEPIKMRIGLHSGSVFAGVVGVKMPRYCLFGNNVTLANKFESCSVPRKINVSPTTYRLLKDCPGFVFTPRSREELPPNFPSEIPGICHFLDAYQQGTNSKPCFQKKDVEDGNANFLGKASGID

## O=C(O)C1C2CCC(C2)N1c1nc(-c2cc(-c3ccon3)n(Cc3ccccc3F)n2)ncc1F (stereo not drawn) [Compound I-92]
  Emax: 60 to 80%
[1]
  EC50: 1000 to 5000 nM

## O=C(O)C1(Nc2nc(-c3cc(-c4ccon4)n(Cc4ccccc4F)n3)ncc2F)CCC1 [Compound I-94]
  Emax: 60 to 80%
[1]
  EC50: 1000 to 5000 nM

## O=C(O)C1c2ccccc2CCN1c1nc(-c2cc(-c3ccon3)n(Cc3ccccc3F)n2)ncc1F (stereo not drawn) [Compound I-97]
  Emax: 60 to 80%
[1]
  EC50: 1 to 100 nM

## Cc1noc(C2CCCCN2c2nc(-c3cc(-c4ccon4)n(Cc4ccccc4F)n3)ncc2F)n1 (stereo not drawn) [Compound I-98]
  Emax: 40 to 60%
[1]
  EC50: 1000 to 5000 nM

## O=C(O)C(Nc1nc(-c2cc(-c3ccon3)n(Cc3ccccc3F)n2)ncc1F)C1COC1 (stereo not drawn) [Compound I-102]
  Emax: 60 to 80%
[1]
  EC50: 1000 to 5000 nM

## CC(C)C[C@@H](Nc1nc(-c2cc(-c3ccon3)n(Cc3ccccc3F)n2)ncc1F)C(=O)O [Compound I-103]
  Emax: 80 to 100%
[1]
  EC50: 1 to 100 nM

## NC(=O)C1CCCCN1c1nc(-c2cc(-c3ccon3)n(Cc3ccccc3F)n2)ncc1F (stereo not drawn) [Compound I-105]
  Emax: 40 to 60%
[1]
  EC50: 100 to 500 nM

## O=C1CCCCCN1CCCNc1nc(-c2cc(-c3ccon3)n(Cc3ccccc3F)n2)ncc1F [Compound I-109]
  Emax: 60 to 80%
[1]
  EC50: 100 to 500 nM

## CC(C)(C)OC(=O)N1CCC(Nc2nc(-c3cc(-c4ccon4)n(Cc4ccccc4F)n3)ncc2F)(C(=O)O)CC1 [Compound I-110]
  Emax: 20 to 40%
[1]
  EC50: > 10000 nM

## O=C(O)[C@@H](CO)Nc1nc(-c2cc(-c3ccon3)n(Cc3ccccc3F)n2)ncc1F [Compound I-112]
  Emax: 20 to 40%
[1]
  EC50: 1000 to 5000 nM

## Fc1ccccc1Cn1nc(-c2ncc(F)c(N3CCn4cnnc4C3)n2)cc1-c1ccon1 [Compound I-113]
  Emax: 60 to 80%
[1]
  EC50: 500 to 1000 nM

## CCOC(=O)c1nnc2n1CCN(c1nc(-c3cc(-c4ccon4)n(Cc4ccccc4F)n3)ncc1F)C2 [Compound I-115]
  Emax: 40 to 60%
[1]
  EC50: 1 to 100 nM

## O=C(O)[C@@H](Cc1ccccc1)Nc1nc(-c2cc(-c3ccon3)n(Cc3ccccc3F)n2)ncc1F [Compound I-116]
  Emax: 60 to 80%
[1]
  EC50: 100 to 500 nM

## O=C(O)[C@@H](Nc1nc(-c2cc(-c3ccon3)n(Cc3ccccc3F)n2)ncc1F)c1ccccc1 [Compound I-117]
  Emax: 40 to 60%
[1]
  EC50: 1000 to 5000 nM

## O=C(O)[C@H](Nc1nc(-c2cc(-c3ccon3)n(Cc3ccccc3F)n2)ncc1F)c1ccccc1 [Compound I-118]
  Emax: 80 to 100%
[1]
  EC50: 1000 to 5000 nM

## O=C(O)C1Cc2ccccc2CN1c1nc(-c2cc(-c3ccon3)n(Cc3ccccc3F)n2)ncc1F (stereo not drawn) [Compound I-119]
  Emax: 40 to 60%
[1]
  EC50: 100 to 500 nM

## O=C(O)[C@@H]1c2ccccc2CCN1c1nc(-c2cc(-c3ccon3)n(Cc3ccccc3F)n2)ncc1F [Compound I-120]
  Emax: 60 to 80%
[1]
  EC50: 100 to 500 nM

## N#CC1CCN(c2nc(-c3cc(-c4ccon4)n(Cc4ccccc4F)n3)ncc2F)CC1 [Compound I-123]
  Emax: 60 to 80%
[1]
  EC50: 100 to 500 nM

## CS(=O)(=O)N1CCN(c2nc(-c3cc(-c4ccon4)n(Cc4ccccc4F)n3)ncc2F)CC1 [Compound I-125]
  Emax: 40 to 60%
[1]
  EC50: 1 to 100 nM

## CC(C)C[C@@H](C(=O)O)N(C)c1nc(-c2cc(-c3ccon3)n(Cc3ccccc3F)n2)ncc1F [Compound I-137]
  Emax: 80 to 100%
[1]
  EC50: 100 to 500 nM

## CC(C)(C)OC(=O)NS(=O)(=O)N1CCN(c2nc(-c3cc(-c4ccon4)n(Cc4ccccc4F)n3)ncc2F)CC1 [Compound I-139]
  Emax: 80 to 100%
[1]
  EC50: 100 to 500 nM

## N#CCNc1nc(-c2cc(-c3ccon3)n(Cc3ccccc3F)n2)ncc1F [Compound I-141]
  Emax: 60 to 80%
[1]
  EC50: 100 to 500 nM

## O=C(NS(=O)(=O)C1CC1)C1CCCCN1c1nc(-c2cc(-c3ccon3)n(Cc3ccccc3F)n2)ncc1F (stereo not drawn) [Compound I-144]
  Emax: 80 to 100%
[1]
  EC50: 500 to 1000 nM

## Fc1ccccc1Cn1nc(-c2ncc(F)c(N3CCC(c4nnn[nH]4)CC3)n2)cc1-c1ccon1 [Compound I-145]
  Emax: 80 to 100%
[1]
  EC50: 1000 to 5000 nM

## Fc1ccccc1Cn1nc(-c2ncc(F)c(NCc3nn[nH]n3)n2)cc1-c1ccon1 [Compound I-146]
  Emax: 80 to 100%
[1]
  EC50: 100 to 500 nM

## CC(C)(C)[C@@H](Nc1nc(-c2cc(-c3ccon3)n(Cc3ccccc3F)n2)ncc1F)C(=O)O [Compound I-148]
  Emax: 80 to 100%
[1]
  EC50: 100 to 500 nM

## Fc1ccccc1Cn1nc(-c2nc(Cl)c(F)c(N3CCOCC3)n2)cc1-c1ccon1 [Compound I-150]
  Emax: 40 to 60%
[1]
  EC50: 100 to 500 nM

## CC(C)(C)[C@H](Nc1nc(-c2cc(-c3ccon3)n(Cc3ccccc3F)n2)ncc1F)C(=O)O [Compound I-151]
  Emax: 60 to 80%
[1]
  EC50: 500 to 1000 nM

## CC1(C)CN(c2nc(-c3cc(-c4ccon4)n(Cc4ccccc4F)n3)ncc2F)CC1C(=O)O (stereo not drawn) [Compound I-152]
  Emax: 80 to 100%
[1]
  EC50: 1 to 100 nM

## CN(c1ccccc1C(=O)O)c1nc(-c2cc(-c3ccon3)n(Cc3ccccc3F)n2)ncc1F [Compound I-153]
  Emax: 60 to 80%
[1]
  EC50: 100 to 500 nM

## O=C(O)C1CCCCC1Nc1nc(-c2cc(-c3ccon3)n(Cc3ccccc3F)n2)ncc1F (stereo not drawn) [Compound I-154]
  Emax: 60 to 80%
[1]
  EC50: 100 to 500 nM

## OC[C@H]1CCCN1c1nc(-c2cc(-c3ccon3)n(Cc3ccccc3F)n2)ncc1F [Compound I-155]
  Emax: 60 to 80%
[1]
  EC50: 100 to 500 nM

## O=C(O)[C@H]1CCC[C@H]1Nc1nc(-c2cc(-c3ccon3)n(Cc3ccccc3F)n2)ncc1F [Compound I-156]
  Emax: 80 to 100%
[1]
  EC50: 100 to 500 nM

## CC(C)C[C@H](Nc1nc(-c2cc(-c3ccon3)n(Cc3ccccc3F)n2)ncc1F)C(=O)NS(=O)(=O)C1CC1 [Compound I-157]
  Emax: 60 to 80%
[1]
  EC50: 100 to 500 nM

## CNS(=O)(=O)N1CCN(c2nc(-c3cc(-c4ccon4)n(Cc4ccccc4F)n3)ncc2F)CC1 [Compound I-158]
  Emax: 60 to 80%
[1]
  EC50: 1 to 100 nM

## O=C(O)[C@@H](Cc1ccc(O)cc1)Nc1nc(-c2cc(-c3ccon3)n(Cc3ccccc3F)n2)ncc1F [Compound I-165]
[2]
  EC50: > 10000 nM

## CCOC(=O)CN(Cc1ccccc1)c1nc(-c2cc(-c3ccon3)n(Cc3ccccc3F)n2)ncc1F [Compound I-166]
  Emax: 40 to 60%
[1]
  EC50: 100 to 500 nM

## CCOC(=O)CN(C)c1nc(-c2cc(-c3ccon3)n(Cc3ccccc3F)n2)ncc1F [Compound I-167]
  Emax: 80 to 100%
[1]
  EC50: 1 to 100 nM

## O=C(O)CN(Cc1ccccc1)c1nc(-c2cc(-c3ccon3)n(Cc3ccccc3F)n2)ncc1F [Compound I-168]
  Emax: 60 to 80%
[1]
  EC50: 100 to 500 nM

## CN(CCC(=O)O)c1nc(-c2cc(-c3ccon3)n(Cc3ccccc3F)n2)ncc1F [Compound I-169]
  Emax: 60 to 80%
[1]
  EC50: 100 to 500 nM

## CC(CN(C)c1nc(-c2cc(-c3ccon3)n(Cc3ccccc3F)n2)ncc1F)C(=O)O (stereo not drawn) [Compound I-170]
  Emax: 60 to 80%
[1]
  EC50: 100 to 500 nM

## CC(C)[C@H](CNc1nc(-c2cc(-c3ccon3)n(Cc3ccccc3F)n2)ncc1F)C(=O)O [Compound I-171]
  Emax: 60 to 80%
[1]
  EC50: 1 to 100 nM

## COc1nc(-c2cc(-c3ccon3)n(Cc3ccccc3F)n2)nc(N2CCOCC2)c1F [Compound I-172]
[2]
  EC50: > 10000 nM

## CC(C)[C@@H](CNc1nc(-c2cc(-c3ccon3)n(Cc3ccccc3F)n2)ncc1F)C(=O)O [Compound I-173]
  Emax: 60 to 80%
[1]
  EC50: 100 to 500 nM

## O=C(O)CCNc1nc(-c2cc(-c3ccon3)n(Cc3ccccc3F)n2)ncc1F [Compound I-174]
  Emax: 60 to 80%
[1]
  EC50: 500 to 1000 nM

## CS(=O)(=O)C1CCN(c2nc(-c3cc(-c4ccon4)n(Cc4ccccc4F)n3)ncc2F)CC1 [Compound I-175]
  Emax: 100 to 120%
[1]
  EC50: 1 to 100 nM

## CN(CC(=O)O)c1nc(-c2cc(-c3ccon3)n(Cc3ccccc3F)n2)ncc1F [Compound I-176]
  Emax: 40 to 60%
[1]
  EC50: 1000 to 5000 nM

## CC(=O)NS(=O)(=O)N1CCN(c2nc(-c3cc(-c4ccon4)n(Cc4ccccc4F)n3)ncc2F)CC1 [Compound I-177]
  Emax: 60 to 80%
[1]
  EC50: 100 to 500 nM

## CS(=O)(=O)CCC(Nc1nc(-c2cc(-c3ccon3)n(Cc3ccccc3F)n2)ncc1F)C(=O)O (stereo not drawn) [Compound I-178]
  Emax: 40 to 60%
[1]
  EC50: 5000 to 10000 nM
